Test results from patent publication US9475848B2 (priority 2012, dated 2016).
Where “and” joins values, the source holds several entries; their conditions need not be identical. Equal entries are not always repeated. Where two headings read alike, the source gives them in different places.

Tests used:
B. pertussis [1] = type: cell-based, Bordetella pertussis
[2] = test system: pertussis toxin (PT) production; type: cell-based, Bordetella pertussis
Bordetella pertussis = type: cell-based; settings: for accumulation of bvg^− cells: MgSO4 20 mM (series C), niacin 0.604 g/L (series B) or both, compared with series A
B. pertussis [3] = test system: B. pertussis
[4] = COQ255: niacin 0.604 g/L in first two pre-cultures, 0.004 g/L thereafter

## O=C(O)[C@@H]1CCCN1 [proline]
B. pertussis [1]; COQ278: proline 12 g/L, sodium glutamate 7 g/L, NaCl 0 g/L
  Final biomass (OD650 nm): 11.3 OD650nm
B. pertussis [1]; COQ280: proline 1 g/L, sodium glutamate 20 g/L, NaCl 0 g/L
  Final biomass (OD650 nm): 9.7 OD650nm

## N[C@@H](CS)C(=O)O [L-cysteine]
B. pertussis [1]; COQ280: L-cysteine 0.04 g/L
  Final biomass (OD650 nm): 9.7 OD650 nm
B. pertussis [1]; COQ396: L-cysteine 0.2 g/L
  Final biomass (OD650 nm): 11.0 OD650 nm
[2]
  PT concentration at end of fermentation: 19 mg/L and 13 mg/L
  Specific PT production at end of fermentation: 2.0 mg L^−1 mg L^−1 OD650 nm^−1 and 1.2 mg L^−1 OD650 nm^−1
  decrease in PT production compared to COQ280: 32%

## O=C(O)c1cccnc1 [niacin]
Bordetella pertussis
  number of generations for which control of bvg^− take-over is effective: up to 100 generations
  accumulation of bvg^− cells: significantly lower accumulation of bvg^− cells
Bordetella pertussis; Series A: niacin 0.004 g/L, no MgSO4, end of fourth culture, start 1%
  Proportion of bvg^− cells: 8%
Bordetella pertussis; Series A: niacin 0.004 g/L, no MgSO4, end of third culture, start 1%
  Proportion of bvg^− cells: 5%
Bordetella pertussis; Series B: niacin 0.604 g/L, no MgSO4, end of fourth culture, start 1%
  Proportion of bvg^− cells: 2%
Bordetella pertussis; Series B: niacin 0.604 g/L, no MgSO4, end of third culture, start 1%
  Proportion of bvg^− cells: 1%
Bordetella pertussis; Table 4 Series A: niacin 0.004 g/L, end of first culture, start 6%
  Proportion of bvg^− cells: 9%
Bordetella pertussis; Table 4 Series A: niacin 0.004 g/L, end of second culture, start 6%
  Proportion of bvg^− cells: 14%
Bordetella pertussis; Table 4 Series A: niacin 0.004 g/L, end of third culture, start 6%
  Proportion of bvg^− cells: 24%
Bordetella pertussis; Table 4 Series B: niacin 0.021 g/L, end of first culture, start 6%
  Proportion of bvg^− cells: 9%
Bordetella pertussis; Table 4 Series B: niacin 0.021 g/L, end of second culture, start 6%
  Proportion of bvg^− cells: 15%
Bordetella pertussis; Table 4 Series B: niacin 0.021 g/L, end of third culture, start 6%
  Proportion of bvg^− cells: 19%
Bordetella pertussis; Table 4 Series C: niacin 0.113 g/L, end of first culture, start 6%
  Proportion of bvg^− cells: 10%
Bordetella pertussis; Table 4 Series C: niacin 0.113 g/L, end of second culture, start 6%
  Proportion of bvg^− cells: 14%
Bordetella pertussis; Table 4 Series C: niacin 0.113 g/L, end of third culture, start 6%
  Proportion of bvg^− cells: 21%
Bordetella pertussis; Table 4 Series D: niacin 0.604 g/L, end of first culture, start 6%
  Proportion of bvg^− cells: 5%
Bordetella pertussis; Table 4 Series D: niacin 0.604 g/L, end of second culture, start 6%
  Proportion of bvg^− cells: 5%
Bordetella pertussis; Table 4 Series D: niacin 0.604 g/L, end of third culture, start 6%
  Proportion of bvg^− cells: 4%
Bordetella pertussis; low niacin concentrations
  controlling the take-over of bvg^− cells: less effective
Bordetella pertussis; niacin 0.6 g/L rather than 0.004 g/L, independently of initial proportion of bvg− cells
  control of the take-over of bvg^− cells: effectively control the take-over of bvg^− cells
Bordetella pertussis; niacin 0.604 g/L, up to 15 generations
  bvg^− take-over: no bvg^− take-over was observed
B. pertussis [1]; [4]
  Final biomass (OD650 nm): 7.2 OD650 nm
  Total fermentation time: 43 h
B. pertussis [3]
  Final proportion of bvg^− in 20 L-fermentor: 13%
  Initial proportion of bvg^− in 20 L-fermentor: 3%
[2]
  PT concentration at end of fermentation: 22.8 mg/L
  Specific PT production at end of fermentation: 3.2 mg L^−1 OD650 nm^−1

## O=P([O-])(O)O.[K+] [KH2PO4]
B. pertussis [1]; COQ279: KH2PO4 0.8 g/L
  Final biomass (OD650 nm): 9.2 OD650 nm
B. pertussis [1]; COQ280: KH2PO4 0.5 g/L
  Final biomass (OD650 nm): 9.7 OD650 nm
[2]
  PT concentration at end of fermentation: 19 mg/L and 13 mg/L
  Specific PT production at end of fermentation: 2.0 mg L^−1 mg L^−1 OD650 nm^−1 and 1.4 mg L^−1 OD650 nm^−1
  decrease in PT production compared to COQ280: 32%

## O=S(=O)([O-])[O-].[Mg+2] [MgSO4]
Bordetella pertussis
  accumulation of bvg^− cells: significantly lower accumulation of bvg^− cells
Bordetella pertussis; Series C: MgSO4 20 mM, niacin 0.004 g/L, end of fourth culture, start 1%
  Proportion of bvg^− cells: 2%
Bordetella pertussis; Series C: MgSO4 20 mM, niacin 0.004 g/L, end of third culture, start 1%
  Proportion of bvg^− cells: 3%
